The text below walks through data of patent USRE47689E1, “Compounds for treating spinal muscular atrophy” (PTC Therapeutics, Inc., priority 2011, dated 2019).

The structures appear in SMILES notation.

Data set [1] relates to SMN2 minigene (full length SMN2 minigene mRNA containing SMN2 exon 7). The data set is described as follows: SMN2 minigene mRNA splicing RT-qPCR assay in cultured cells. Type of data set: cell-based, human. To be noted: Homo sapiens, HEK293-H; HEK293H cells stably transfected with SMN2-A minigene; 24 hours; 7-point concentration curve; 1.5-fold relative to vehicle-treated cells; read-out: EC1.5x for production of full length SMN2 mRNA. In short, it runs like this: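 Full-length SMN2 minigene mRNA (exon 7 included), minigene-specific and not endogenous SMN, quantified by RT-qPCR multiplexed with GAPDH in stably transfected HEK293H cells after 24 h compound exposure at 37° C. Abundance from efficiency-corrected Ct, normalized to GAPDH and vehicle; EC1.5x reported as star bins.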

Another data set concerns Smn protein. The data set is described as follows: Smn protein assay in cultured cells (SMN HTRF). To be noted: 48 hours; for maximum fold (Fold) increase of Smn protein: SMA patient fibroblast cells, 7-point concentration data, fold increase relative to vehicle control (SMN HTRF); for EC1.5x (concentration giving 1.5-fold Smn protein increase): SMA Type 1 patient fibroblast cells (GM03813), 7-point concentration curve, SMN HTRF, concentration producing 1.5 times Smn protein vs DMSO vehicle control, read-out: EC1.5x for Smn protein expression. The class given is cell-based, human. An outline of the steps: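 Smn in SMA fibroblast lysates, measured by anti-SMN HTRF after 48 h compound exposure; EC1.5x from fold change over vehicle.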

In the case of `O=c1oc2cc(CO)cc(F)c2cc1-c1cn2ccsc2n1` [Compound 397, 5-fluoro-7-(hydroxymethyl)-3-(imidazo[2,1-b][1,3]thiazol-6-yl)-2H-chromen-2-one], the melting point was in the range of 278 to 282 °C. Further, the EC (1.5-fold) in data set [1] was in the range of 3 to 30 µM. In the data set with Smn protein, the “maximum fold (Fold) increase of Smn protein” value (“maximum fold (Fold) increase” for short) is listed as “* (maximum fold increase of ≤1.2)”.
In turn, `CN1CCCN(c2ccc3cc(-c4cn5cccc(Cl)c5n4)c(=O)oc3c2)CC1` [Compound 280, 3-(8-chloroimidazo[1,2-a]pyridin-2-yl)-7-(4-methyl-1,4-diazepan-1-yl)-2H-chromen-2-one] showed a melting point of 161 to 163 °C. The EC (1.5-fold) in data set [1] lay within 0.1 to 0.3 µM. For the same compound, in the data set with Smn protein, the “maximum fold (Fold) increase” value is “*** (fold increase between >1.35 and ≤1.5)”.
`C[C@@H]1CN(c2cc(F)c3cc(-c4nc5c(F)cccc5o4)c(=O)oc3c2)C[C@H](C)N1` [Compound 367, 7-[(3R,5S)-3,5-dimethylpiperazin-1-yl]-5-fluoro-3-(4-fluoro-1,3-benzoxazol-2-yl)-2H-chromen-2-one] yielded a melting point of 268 to 272 °C. Besides, the EC (1.5-fold) in data set [1] fell in the range of 0.1 to 0.3 µM. Moreover, in the data set with Smn protein, the “maximum fold (Fold) increase” value is “*** (fold increase between >1.35 and ≤1.5)”.
Take `O=c1oc2cc(N3CCNCC3)cc(F)c2cc1-c1nc2ccccc2s1` [Cpd 160, 3-(1,3-benzothiazol-2-yl)-5-fluoro-7-(piperazin-1-yl)-2H-chromen-2-one]: the melting point is 256 to 260 °C. Further, the EC (1.5-fold) in data set [1] was in the range of 0.3 to 1 µM. Further, the “maximum fold (Fold) increase” value with Smn protein is given as “* (maximum fold increase of ≤1.2)”.
In turn, `Cc1cn2cc(-c3cc4ccc(C5CCN(C6CCC6)CC5)cc4oc3=O)nc2cn1` [Compound 869, 7-(1-cyclobutylpiperidin-4-yl)-3-(6-methylimidazo[1,2-a]pyrazin-2-yl)-2H-chromen-2-one] came in with a melting point of 256 to 268 °C. In data set [1], the EC (1.5-fold) was less than 0.1 µM. Also, in the data set on Smn protein, the EC1.5x (concentration giving 1.5-fold Smn protein increase) is less than 300 nM and the “maximum fold (Fold) increase” value was “***** (fold increase >1.65)”.
`CN1CCC(c2ccc3cc(-c4ccc5nn(C)cc5c4)c(=O)oc3c2)CC1` [Compound 862, 3-(2-methyl-2H-indazol-5-yl)-7-(1-methylpiperidin-4-yl)-2H-chromen-2-one] gave a melting point of 215 to 218 °C. Also, in data set [1], the EC (1.5-fold) was less than 0.1 µM. In addition, in the data set with Smn protein, the EC1.5x (concentration giving 1.5-fold Smn protein increase) lay within 300 to 1000 nM and the “maximum fold (Fold) increase” value is given as “***** (fold increase >1.65)”.
`Cc1ccc2nc(-c3cc4ccc(CN5CCC(O)C5)cc4oc3=O)cn2c1` (centres unmarked) [Compound 253, 7-[(3-hydroxypyrrolidin-1-yl)methyl]-3-(6-methylimidazo[1,2-a]pyridin-2-yl)-2H-chromen-2-one]: the melting point fell in the range of 227 to 230 °C. Also, the EC (1.5-fold) in data set [1] fell in the range of 1 to 3 µM. In the data set with Smn protein, the “maximum fold (Fold) increase” value is recorded as “* (maximum fold increase of ≤1.2)”.
As for `Cc1cnc2nc(-c3cc4ccc(N5CCCN(C)CC5)cc4oc3=O)cn2c1` [Compound 250, 7-(4-methyl-1,4-diazepan-1-yl)-3-(6-methylimidazo[1,2-a]pyrimidin-2-yl)-2H-chromen-2-one], the melting point is 285 to 287 °C. Further, the EC (1.5-fold) in data set [1] lay within 0.1 to 0.3 µM. In addition, in the data set on Smn protein, the EC1.5x (concentration giving 1.5-fold Smn protein increase) lay within 1000 to 3000 nM; the “maximum fold (Fold) increase” value is “*** (fold increase between >1.35 and ≤1.5)”.
Compound `CN1CCCN(c2ccc3cc(-c4cn5cc(F)cc(F)c5n4)c(=O)oc3c2)CC1` [Cpd 520, 3-(6,8-difluoroimidazo[1,2-a]pyridin-2-yl)-7-(4-methyl-1,4-diazepan-1-yl)-2H-chromen-2-one] gave a melting point of 255 to 260 °C. Besides, the EC (1.5-fold) in data set [1] lay in the range of 0.3 to 1 µM. Further, in the data set with Smn protein, the “maximum fold (Fold) increase” value is “** (fold increase between >1.2 and ≤1.35)”.
On to `O=c1oc2cc(N3CCNCC3)ccc2cc1-c1cn2cccc(Cl)c2n1` [Compound 83, 3-(8-chloroimidazo[1,2-a]pyridin-2-yl)-7-(piperazin-1-yl)-2H-chromen-2-one], for which the melting point was in the range of 196 to 198 °C. In addition, the EC (1.5-fold) in data set [1] lay in the range of 0.3 to 1 µM. Moreover, in the data set on Smn protein, the EC1.5x (concentration giving 1.5-fold Smn protein increase) lay within 1000 to 3000 nM; the “maximum fold (Fold) increase” value is “**** (fold increase between >1.5 and ≤1.65)”.
`C[C@@H]1CN(c2ccc3cc(-c4cn5ccc(C(F)(F)F)cc5n4)c(=O)oc3c2)CCN1` [Compound 267, 7-[(3R)-3-methylpiperazin-1-yl]-3-[7-(trifluoromethyl)imidazo[1,2-a]pyridin-2-yl]-2H-chromen-2-one]: the melting point lay within 252 to 260 °C. The EC (1.5-fold) in data set [1] fell in the range of 1 to 3 µM. Also, the “maximum fold (Fold) increase” value in the data set on Smn protein is reported as “* (maximum fold increase of ≤1.2)”.
Take `Cc1cn2cc(-c3cc4ccc(OCCN(C)C)cc4oc3=O)nc2c(C)n1` [Cpd 876, 7-[2-(dimethylamino)ethoxy]-3-(6,8-dimethylimidazo[1,2-a]pyrazin-2-yl)-2H-chromen-2-one]: the melting point lay within 251 to 253 °C. The EC (1.5-fold) in data set [1] is less than 0.1 µM. In the data set with Smn protein, the EC1.5x (concentration giving 1.5-fold Smn protein increase) is less than 300 nM; the “maximum fold (Fold) increase” value was “**** (fold increase between >1.5 and ≤1.65)”.
For the compound `C[C@@H]1CN(c2ccc3cc(-c4cn5cc(F)cc(F)c5n4)c(=O)oc3c2)C[C@H](C)N1` [Compound 523, 3-(6,8-difluoroimidazo[1,2-a]pyridin-2-yl)-7-[(3R,5S)-3,5-dimethylpiperazin-1-yl]-2H-chromen-2-one], the melting point was 267 to 277 °C. In addition, the EC (1.5-fold) in data set [1] was 0.3 to 1 µM. The “maximum fold (Fold) increase” value in the data set on Smn protein was “** (fold increase between >1.2 and ≤1.35)”.
Regarding `Cc1nn2cc(-c3cc4ccc(N5C[C@@H](C)N[C@@H](C)C5)cc4oc3=O)nc2s1` [Compound 443, 7-[(3R,5S)-3,5-dimethylpiperazin-1-yl]-3-(2-methylimidazo[2,1-b][1,3,4]thiadiazol-6-yl)-2H-chromen-2-one], the melting point was in the range of 225 to 228 °C. Also, in data set [1], the EC (1.5-fold) was less than 0.1 µM. In addition, in the data set on Smn protein, the EC1.5x (concentration giving 1.5-fold Smn protein increase) fell in the range of 300 to 1000 nM; the “maximum fold (Fold) increase” value was “**** (fold increase between >1.5 and ≤1.65)”.
As to `O=c1oc2cc(N3C[C@@H]4C[C@H]3CN4)ccc2cc1-c1nc(C(F)(F)F)cs1` [Compound 266, 7-[(1S,4S)-2,5-diazabicyclo[2.2.1]hept-2-yl]-3-[4-(trifluoromethyl)-1,3-thiazol-2-yl]-2H-chromen-2-one], the melting point lay in the range of 211 to 220 °C. In data set [1], the EC (1.5-fold) fell in the range of 1 to 3 µM. Moreover, the “maximum fold (Fold) increase” value in the data set on Smn protein is given as “* (maximum fold increase of ≤1.2)”.
Take `CCN1CCN(c2ccc3cc(-c4cn5cccnc5n4)c(=O)oc3c2)CC1` [Compound 108, 7-(4-ethylpiperazin-1-yl)-3-(imidazo[1,2-a]pyrimidin-2-yl)-2H-chromen-2-one]: the melting point lay within 300 to 302 °C. In data set [1], the EC (1.5-fold) was in the range of 1 to 3 µM. In the data set on Smn protein, the EC1.5x (concentration giving 1.5-fold Smn protein increase) fell in the range of 300 to 1000 nM; the “maximum fold (Fold) increase” value was “**** (fold increase between >1.5 and ≤1.65)”.
For the compound `CC(C)NCCCc1ccc2cc(-c3nc4c(Cl)cccc4s3)c(=O)oc2c1` [Compound 36, 3-(4-chloro-1,3-benzothiazol-2-yl)-7-[3-(propan-2-ylamino)propyl]-2H-chromen-2-one], the melting point was in the range of 262 to 265 °C. In addition, the EC (1.5-fold) in data set [1] was 1 to 3 µM. The “maximum fold (Fold) increase” value in the data set on Smn protein is on record as “* (maximum fold increase of ≤1.2)”.
Compound `Cc1nc2ccc(-c3cc4ccc(N5CCNCC5)cc4oc3=O)cc2o1` [Compound 695, 3-(2-methyl-1,3-benzoxazol-6-yl)-7-(piperazin-1-yl)-2H-chromen-2-one] registered a melting point of 200 to 205 °C. Also, in data set [1], the EC (1.5-fold) was less than 0.1 µM. Further, the “maximum fold (Fold) increase” value with Smn protein is “*** (fold increase between >1.35 and ≤1.5)”.
Take `Cc1cn2cc(-c3cc4ccc(N5CC[C@H](NC(=O)OC(C)(C)C)C5)cc4oc3=O)cc2c(C)n1` [Compound 724, tert-butyl {(3S)-1-[3-(1,3-dimethylpyrrolo[1,2-a]pyrazin-7-yl)-2-oxo-2H-chromen-7-yl]pyrrolidin-3-yl}carbamate]: the melting point is 193 to 196 °C. In data set [1], the EC (1.5-fold) fell in the range of 1 to 3 µM. Moreover, the “maximum fold (Fold) increase” value in the data set on Smn protein is “* (maximum fold increase of ≤1.2)”.
With `CC(C)N1CCN(c2ccc3cc(-c4cc5ccccn5n4)c(=O)oc3c2)CC1` [Compound 196, 7-[4-(propan-2-yl)piperazin-1-yl]-3-(pyrazolo[1,5-a]pyridin-2-yl)-2H-chromen-2-one], the melting point was in the range of 243 to 246 °C. In addition, in data set [1], the EC (1.5-fold) lay within 1 to 3 µM. Besides, the “maximum fold (Fold) increase” value with Smn protein is “* (maximum fold increase of ≤1.2)”.
In the case of `CNCCCc1ccc2cc(-c3cn4cc(C)nc(C)c4n3)c(=O)oc2c1` [Compound 912, 3-(6,8-dimethylimidazo[1,2-a]pyrazin-2-yl)-7-[3-(methylamino)propyl]-2H-chromen-2-one], the melting point fell in the range of 197 to 201 °C. In addition, in data set [1], the EC (1.5-fold) is less than 0.1 µM. For the same compound, in the data set with Smn protein, the EC1.5x (concentration giving 1.5-fold Smn protein increase) is less than 300 nM; the “maximum fold (Fold) increase” value was “**** (fold increase between >1.5 and ≤1.65)”.
